Results taken from US5508293A, “Pyridinecarboxyimidamide compounds and the use thereof” (Kirin Beer Kabushiki Kaisha, priority 1992, dated 1996).

How the values were obtained:
[1] = tested on: coronary blood flow (circumflex branch of the left coronary artery), beagles; assay: Coronary dilating effect on beagles (coronary blood flow, anesthetized dog); format: in vivo; details: i.v., 10 Mg/Kg
Protocol: Coronary dilating effects of 5-amino-N-cyano-N'-(2-nitroxyethyl)-3-pyridinecarboximidamide (Compound No. 18) of the present invention was assessed by comparison with those of N-cyano-N'-(2-nitroxyethyl)-3-pyridinecarboximidamide methanesulfonic acid (compound described in Japanese Patent Laid-Open Publication No. 163061/1991) which is thought to be a well-known compound most similar to the compound of the present invention.
A dog (body weight, 8.3 kg) was anesthetized with 30 mg/kg of pentobarbital sodium intravenously. Respiration was maintained with room air through a cuffed endotracheal tube. The drug was administered through the femoral vein, and the coronary blood flow was measured by a probe attached to the circumflex branch of the left coronary artery.

[2] = tested on: spontaneously hypertensive rats (SHR), systolic blood pressure; assay: Antihypertensive effects on conscious SHR (oral), Compound Nos. 18 and 19; format: in vivo, rat (male spontaneously hypertensive rats
Protocol: Antihypertensive effects of- 5-amino-N-cyano-N'-(2-nitroxyethyl)-3-pyridinecarboximidamide (N-cyano-N'-(2-nitroxyethyl)-5-(3-aminopyridine)carboximidamide; Compound No. 18) and N-cyano-5-ethylamino-N'-(2-nitroxyethyl)-3-pyridinecarboximidamide (N-cyano-N'-(2-nitroxyethyl)-5-[3-(N-ethylaminopyridine)]carboximidamide; Compound No. 19) were assessed by comparison with those of the methanesulfonate salt of N-cyano-N'-(2-nitroxyethyl)-3-pyridinecarboximidamide (compound described in Japanese Patent Laid-Open Publication No. 163061/1991) as a reference compound which is thought to be a well-known compound most similar to the compound of the present invention.
Systolic blood pressure (SBP) was measured with the tail cuff method.
Each of the compound Nos. 18 and 19 was dissolved in an equivalent mixture of polyethylene glycol 200 and physiological saline, and the reference compound was dissolved in physiological saline. The compounds were administered orally with the aid of an oral probe. SBP was measured before administration and 1, 2, 4, 6, 8, 12 and 24 hours after administration of the compound. The results were expressed as the percentage change in SBP observed before administration.

[3] = tested on: rat aorta; assay: Vasodilating effect in a rat aorta (relaxation of KCl-induced contraction); design: species or system rat (male Wistar rat); details: isolated rat thoracic aorta, 40 mM KCl; read-out: IC50 (concentration for inhibiting 50% of the tension induced by KCl)
Protocol: Physiological effect of the compound of the present invention was tested by the method with use of an isolated rat aorta.
Thoracic aorta was isolated from a male Wistar rat (body weight, 250-350 g) exsanguinated to death for obtaining ring preparations having a width of 3 mm. The preparations were suspended into an organ bath filled with the Krebs-Ringer solution through which a mixed gas of 95% O2 and 5% CO2 had been aerated at 37° C. A resting tension of 1 g was applied to the preparation. After the tension in the preparation was stabilized, the solution in the organ bath was exchanged with an equimolar solution containing 40 mM KC1 to increase the tension of the preparation. When the tension induced by KCl become stable, the test compound was cumulatively added to the organ bath to relax the preparation. Relaxation response was expressed as percentage inhibition of KCl-induced contraction, and the IC50 value (concentration for inhibiting 50% of the tension induced by KCl) was calculated from the average concentration-response curve by the Probit method.

[4] = Acute toxicity, oral, Compound No. 18; details: rat, in vivo, male SD rats (5 weeks old)
Protocol: Acute toxicity of 5-amino-N-cyano-N'-(2-nitroxyethyl)-3-pyridinecarboximidamide (Compound No. 18) of the present invention on oral administration was examined with male SD rats (5 weeks old). As a result, LD50 was about 600 mg/kg.

**Q.** Which “increase of coronary blood flow” value [1] does the source give for `N#CNC(=NCCO[N+](=O)[O-])c1cncc(N)c1` [Compound No. 18, 5-amino-N-cyano-N'-(2-nitroxyethyl)-3-pyridinecarboximidamide] here?
**A.** increase of coronary blood flow was observed

**Q.** What about the “time for which the increase of coronary blood flow was retained” value [1] of the same compound?
**A.** ≥ 15 min

**Q.** And the “percent change of coronary blood flow as compared with the blood flow before administration” value (from here on “percent change of coronary blood flow”) ([1]; 1 min after dosage)?
**A.** 200.0%

**Q.** What about the “percent change of coronary blood flow” value ([1]; 3 min after dosage) of the same compound?
**A.** 123.8%

**Q.** What about the “percent change of coronary blood flow” value ([1]; 5 min after dosage) of the same compound?
**A.** 71.4%

**Q.** And the “percent change of coronary blood flow” value ([1]; 10 min after dosage)?
**A.** 19.0%

**Q.** And the “percent change of coronary blood flow” value ([1]; 15 min after dosage)?
**A.** 19.0%

**Q.** What about the “percent change of coronary blood flow” value ([1]; 20 min after dosage) of the same compound?
**A.** 0.0%

**Q.** What about the “decrease in blood pressure / antihypertensive effect” value ([2]; 3.0 mg/kg oral) of the same compound?
**A.** decrease in blood pressure was observed

**Q.** And the “duration of the antihypertensive effect” value ([2]; 3.0 mg/kg oral)?
**A.** ≥ 12 h

**Q.** What about the “percent change in SBP observed before administration of the compound” value (“percent change … of the compound” for short) ([2]; 3.0 mg/kg oral, 1 hour after administration) of the same compound?
**A.** -56.9%

**Q.** And the “percent change … of the compound” value ([2]; 3.0 mg/kg oral, 2 hour after administration)?
**A.** -49.2%

**Q.** And the “percent change … of the compound” value ([2]; 3.0 mg/kg oral, 4 hour after administration)?
**A.** -42.6%

**Q.** And the “percent change … of the compound” value ([2]; 3.0 mg/kg oral, 6 hour after administration)?
**A.** -17.9%

**Q.** What about the “percent change … of the compound” value ([2]; 3.0 mg/kg oral, 8 hour after administration) of the same compound?
**A.** -20.5%

**Q.** And the “percent change … of the compound” value ([2]; 3.0 mg/kg oral, 12 hour after administration)?
**A.** -22.2%

**Q.** And the “percent change … of the compound” value ([2]; 3.0 mg/kg oral, 24 hour after administration)?
**A.** -3.7%

**Q.** What about the “antihypertensive activity or coronary vasodilating effect determined with the passage of time” value ([2]; summary statement) of the same compound?
**A.** remarkably potent and sustainable

**Q.** What about the IC50 [3] of the same compound?
**A.** 22 µM

**Q.** And the LD50 [4]?
**A.** ~600 mg/kg
